Each structure is given as a SMILES string. Read-outs that look alike come from different tables or passages of the source.

What is called IC50 is the concentration needed to halve the response being measured.

In assay [1] the target is T1, leukocyte-type 12-lipoxygenase (Mus musculus, UniProt P39654).
T1 sequence (P39654 1-663): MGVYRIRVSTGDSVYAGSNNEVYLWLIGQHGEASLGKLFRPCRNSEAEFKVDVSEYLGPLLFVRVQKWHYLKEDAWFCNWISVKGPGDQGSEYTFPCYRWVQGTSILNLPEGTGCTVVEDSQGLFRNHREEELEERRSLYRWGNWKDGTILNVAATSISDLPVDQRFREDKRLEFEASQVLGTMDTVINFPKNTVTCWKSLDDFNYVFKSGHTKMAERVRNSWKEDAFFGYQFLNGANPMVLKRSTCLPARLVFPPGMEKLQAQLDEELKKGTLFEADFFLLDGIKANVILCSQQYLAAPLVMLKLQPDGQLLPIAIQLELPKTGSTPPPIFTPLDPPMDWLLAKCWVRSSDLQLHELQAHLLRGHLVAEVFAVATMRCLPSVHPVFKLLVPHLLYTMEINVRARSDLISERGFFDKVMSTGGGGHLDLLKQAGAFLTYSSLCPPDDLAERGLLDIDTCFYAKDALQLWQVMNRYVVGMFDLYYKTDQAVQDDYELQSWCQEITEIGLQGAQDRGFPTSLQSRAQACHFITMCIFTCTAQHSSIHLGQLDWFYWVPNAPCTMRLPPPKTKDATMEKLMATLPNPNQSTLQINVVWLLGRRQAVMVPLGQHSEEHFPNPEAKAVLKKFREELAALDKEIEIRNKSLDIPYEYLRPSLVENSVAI
Description: leukocyte-type 12-lipoxygenase inhibition assay (arachidonic acid, HPLC quantification). In kind it is biochemical. The note with it: 25 μM arachidonic acid, 30 °C, 5 min; for inhibitory effect on leukocyte-type 12-lipoxygenase activity (in words): various concentrations (Figure 5). On the procedure:
Figure 3 Inhibition of the leukocyte-type 12-lipoxygenase activity by liguroside C (closed circles) and liguroside D (open circles). Leukocyte-type 12-lipoxygenase was incubated with 25 μM arachidonic acid at 30 °C for 5 min in the standard reaction mixture, in the presence of inhibitors at various concentrations and the products were quantified using a reverse-phase HPLC. Relative enzyme activities, as compared with the activity without inhibitors, are shown.
Figure 5 Inhibition of the leukocyte-type 12-lipoxygenase activity by liguroside A (closed circles), kudingoside B (grey circles), kudingoside A (open circles), and lipedoside B-III (open lozenges). Leukocyte-type 12-lipoxygenase was incubated with 25 μM arachidonic acid, at 30 °C, for 5 min, in the standard reaction mixture in the presence of inhibitors, at various concentrations, and the products were quantified using a reverse-phase HPLC. Relative enzyme activities, as compared with the activity without inhibitors, are shown.
The lipoxygenase and cyclooxygenase reactions were carried out, as described previously. Briefly, leukocyte-type 12-lipoxygenase or 15-lipoxygenase-1 was preincubated with inhibitors, in a volume of 0.2 mL in 100 mM Tris-HCl buffer, at pH 7.4, for 5 min at 30 °C, and was then incubated with 25 μM arachidonic acid for 5 min at 30 °C. Platelet-type 12-lipoxygenase reaction was carried out the as same as leukocyte-type 12-lipoxygenase reaction, except for incubation condition of 30 min at 37 °C. 5-Lipoxygenase was preincubated in 100 mM Tris-HCl buffer at pH 7.4, 2 mM CaCl2, and 2 mM ATP, with inhibitors, for 5 min on ice and then incubated with 25 μM arachidonic acid, for 5 min at 30 °C. To reduce the metabolites of each lipoxygenase isozyme, we added glutathione peroxidase (0.1 unit) and 5 mM glutathione to the mixture, followed by incubation for another 20 min. The enzyme reactions of cyclooxygenase-1 and cyclooxygenase-2 were carried out, as described previously. Briefly, cyclooxygenase-1 and cyclooxygenase-2 were preincubated with inhibitors in a volume of 0.2 mL in 100 mM Tris-HCl buffer at pH 7.4, 2 μM hematin, and 5 mM tryptophan, for 5 min at 24 °C, and then incubated with 25 μM […], for 5 min at 24 °C. After the reaction was quenched by an addition of 50 mM HCl, 0.5 nmol of 15-HEDE were added as an internal standard for enzyme reactions. The products extracted with ice-cold diethyl ether were analyzed by a reverse-phase HPLC, using a Waters Alliance system equipped with a COSMOSIL 5C18-MS-II column (5-μm particle, 250 × 4.6 mm i.d., Nacalai), with a solvent system of methanol-water-acetic acid (80:20:0.01, v/v), at a flow rate of 1 mL/min, as previously described. Absorption at 235 nm was continuously monitored, using a Waters 2489 UV/Visible detector (Waters, Milford, MA, USA). Protein concentration was determined using a bicinchoninic acid protein assay kit (Thermo Fisher Scientific, Waltham, MA, USA), with bovine serum albumin as a standard.

The target of assay [2] is T1, leukocyte-type 12-lipoxygenase. More on the design: method as in PMID 23579993. The following applies: cited from earlier work.
Assay [3] has the same target. In words: reversibility analysis of leukocyte-type 12-lipoxygenase inhibition (preincubation, 200-fold dilution). The assay is classed as biochemical. The method, then: The preincubation mixture was 200-fold diluted 0, 5, 15, and 30 min, before starting the enzyme reaction under the standard condition for the lipoxygenase assay. […] On the other hands, tested ligurosides inhibited the leukocyte-type 12-lipoxygenase activity, even after 30 min, indicating an irreversible inhibition of the enzyme activity (Figure 4). Figure 4 Reversibility analysis of the leukocyte-type 12-lipoxygenase inhibition. The leukocyte-type 12-lipoxygenase was preincubated with 6 μM quercetin, liguroside A, liguroside C, and liguroside D, at 30 °C, for 5 min, and then the mixture was 200-fold diluted in the standard lipoxygenase reaction mixture. After 0, 5, 15, and 30 min, the mixtures were incubated with 25 μM arachidonic acid at 30 °C, for 5 min. […] The products extracted with ice-cold diethyl ether were analyzed by a reverse-phase HPLC, using a Waters Alliance system equipped with a COSMOSIL 5C18-MS-II column (5-μm particle, 250 × 4.6 mm i.d., Nacalai), with a solvent system of methanol-water-acetic acid (80:20:0.01, v/v), at a flow rate of 1 mL/min, as previously described. Absorption at 235 nm was continuously monitored, using a Waters 2489 UV/Visible detector (Waters, Milford, MA, USA). Protein concentration was determined using a bicinchoninic acid protein assay kit (Thermo Fisher Scientific, Waltham, MA, USA), with bovine serum albumin as a standard.

Turning to `CC(C)=CCC/C(C)=C/CO[C@@H]1O[C@H](CO)[C@@H](OC(=O)/C=C/c2ccc(O)cc2)[C@H](O[C@@H]2O[C@@H](C)[C@H](O)[C@@H](O)[C@H]2O)[C@H]1O` [kudingoside A], the “inhibitory effect on leukocyte-type 12-lipoxygenase activity (in words)” value in assay [1] is given as “did not inhibit”. On the same count and under the same terms, in the case of `C/C(=C\CO[C@@H]1O[C@H](CO)[C@@H](OC(=O)/C=C/c2ccc(O)cc2)[C@H](O[C@@H]2O[C@@H](C)[C@H](O)[C@@H](O)[C@H]2O)[C@H]1O)C/C=C/C(C)(C)O` [kudingoside B] it was “lower inhibitory effect”. Turning to `C/C(=C\CO[C@@H]1O[C@H](CO)[C@@H](OC(=O)/C=C\c2ccc(O)cc2)[C@H](O[C@@H]2O[C@@H](C)[C@H](O)[C@@H](O)[C@H]2O)[C@H]1O)C/C=C/C(C)(C)OO` [liguroside B], the IC50 in assay [2] (previous report, read-out: IC50, inhibition of leukocyte-type 12-lipoxygenase activity) was 0.7 µM. As to `C=CC(C)(C/C=C/C(C)(C)OO)O[C@@H]1O[C@H](CO)[C@@H](OC(=O)/C=C/c2ccc(O)cc2)[C@H](O[C@@H]2O[C@@H](C)[C@H](O)[C@@H](O)[C@H]2O)[C@H]1O` (stereo partly drawn) [liguroside C, (5E)-7-hydroperoxy-3,7-dimethyl-1,5-octadienyl-3-O-(α-L-rhamnopyranosyl)-(1′′→3′)-(4′′′-O-trans-p-coumaroyl)-β-D-glucopyranoside], the IC50 in assay [1] was 2.9 µM. Same read-out and setting: in the case of `C=C(C)C(CC/C(C)=C/CO[C@@H]1O[C@H](CO)[C@@H](OC(=O)/C=C/c2ccc(O)cc2)[C@H](O[C@@H]2O[C@@H](C)[C@H](O)[C@@H](O)[C@H]2O)[C@H]1O)OO` (stereo partly drawn) [liguroside D] it was 4.2 µM.

Turning to `C=CC(C)(CCC=C(C)C)O[C@@H]1O[C@H](CO)[C@@H](OC(=O)/C=C/c2ccc(O)cc2)[C@H](O[C@@H]2O[C@@H](C)[C@H](O)[C@@H](O)[C@H]2O)[C@H]1O` (stereo partly drawn) [lipedoside B-III], the “inhibitory effect on leukocyte-type 12-lipoxygenase activity (in words)” value in assay [1] is “did not inhibit”. As for `O=C(O)C=Cc1ccc(O)cc1` [p-Coumaric acid, reference compound], the “inhibition of leukocyte-type 12-lipoxygenase activity (in words)” value in assay [2] is “no inhibition”. `O=c1c(O)c(-c2ccc(O)c(O)c2)oc2cc(O)cc(O)c12` [quercetin]: in assay [3] (preincubated 5 min with 6 μM, no dilution), the “inhibition of leukocyte-type 12-lipoxygenase activity at 6 μM (in words)” value is on record as “almost completely inhibited”. Also, the “reversibility of leukocyte-type 12-lipoxygenase inhibition after dilution” value in assay [3] (preincubation 6 μM 5 min at 30 °C, 200-fold dilution, 0, 5, 15 and 30 min before reaction) was “quickly recovered”.

The values above are taken from PMC6358863, “Involvement of the Hydroperoxy Group in the Irreversible Inhibition of Leukocyte-Type 12-Lipoxygenase by Monoterpene Glycosides Contained in the Qing Shan Lu Shui Tea” (Molecules, 2019).
